Tests used:
[1] = Rat dental caries model: body weight; assay type: in vivo, Wistar rats
Description: (§1) SPF female Wistar rats (about 3 weeks old) were obtained and housed in a barrier environment with constant temperature and humidity, with 12 h of light and 12 h of darkness. All rats were acclimated to the environment and diet in a week before experiment, and then were randomly divided into groups according to body weight. The rats were randomly divided into 4 groups according to body weight with 10 rats in each group, among which one group was set as the blank control group (blank group), one group was set as the dental caries model group (dental caries group), and two groups were set as the intervention group. The intervention groups were wiped S. sobrinus continuously for 7 days, and after confirming that S. sobrinus was successfully colonized in the rat's oral cavity, the corresponding experimental groups were wiped chlorhexidine (chlorhexidine group) and LS97 (LS97 group) continuously for 7 days respectively, and then 3 times a week. Chlorhexidine, an ionic drug with good antibacterial effect, was used as a positive control group. The cariogenic bacteria S. sobrinus and LS97 were both cultured overnight for 12 h. After adjusted to a bacterial concentration of 1×10^8 CFU/mL, 0.2 mL of bacterial suspension was wiped onto the rat molars by sterile cotton swab, and namely, the cotton swab that absorbed bacterial suspension sufficiently worked on each quarter of the rat's oral teeth for the same 15 s. During the experiment, except for the blank control group fed normal feed and drinking water, other groups were all fed cariogenic feed Diet 2000# and drinking water added with 5% sucrose, in which the main components of cariogenic feed are shown in Table 4. The experimental period was maintained for 10 weeks.

[2] = tested on: Streptococcus sobrinus; assay: Rat dental caries model: oral S. sobrinus count and Keyes caries score; assay type: in vivo, Wistar rats
Description: as §1
At the 3rd, 7th, and 10th weeks of the experiment (corresponding to the early, middle and late stages of the experiment, respectively), the first, second and third samplings were performed on the oral teeth of rats, and samples were spread on MRS solid medium added with vancomycin of 12 μg/mL for Streptococcus sobrinus count.
After the rat experiment was finished, the rats were killed and the rat molars were taken out. The molars were placed in a 0.4% murexide dye liquor and soaked for 12 h overnight for dyeing. After the molars were rinsed by clean water and dried naturally, the caries lesion condition of rat molars in each group was observed under a stereo microscope. Caries scoring was performed on the rat teeth by using the Keyes caries scoring method. According to Keyes' classic method for evaluating dental caries, the lesion degree of dental caries is divided into four grades: E-grade caries, caries lesion involving enamel only; Ds-grade caries, enamel caries lesion and caries lesion involving the outer dentin less than ¼; Dm-grade caries, caries lesion involving the dentin thickness within ¼ to ¾; Dx-grade caries, caries lesion involving the dentin thickness more than ¾, and the result is shown in FIG. 4.

[3] = Keyes caries scoring, FIG. 4, versus dental caries model group

## [H]/N=C(\N/C(=N/[H])NCCCCCCNC(=N)NC(=N)Nc1ccc(Cl)cc1)Nc1ccc(Cl)cc1 [Chlorhexidine]
[1]; 10 weeks
  Body weight of rats after the experiment: 212.49 ± 23.86 g
  Rat body weight increment: 147.83 ± 19.73 g
[1]; baseline
  Body weight of rats before the experiment: 60.32 ± 5.28 g
[2]; [3]
  Effect on Dm caries (in words): not obvious
  Effect on E caries and Ds caries (in words): effectively reduced
[2]; after intervention, chlorhexidine statement refers to the third test
  Change of the number of Streptococcus sobrinus in the oral cavity (in words): showed an increment circumstance
[2]; sampling number 1, 3rd week
  Count of Streptococcus sobrinus in oral sampling: 5.53 ± 0.23 Log value
[2]; sampling number 2, 7th week
  Count of Streptococcus sobrinus in oral sampling: 4.00 ± 0.19 Log value
[2]; sampling number 3, 10th week
  Count of Streptococcus sobrinus in oral sampling: 4.31 ± 0.13 Log value

Reference: patent publication US20220409681A1, “LACTOBACILLUS SALIVARIUS LS97 AND APPLICATION THEREOF” (WECARE PROBIOTICS CO., LTD., priority 2019, published 2022)
